Measurements taken from PubChem BioAssay AID1259407 (Chemical Carcinogenesis Research Information System (CCRIS), 2018).
Active and inactive are the calls of the source. No rule for the calls is given here.

Tested on: CCRIS mutagenicity, Ames/micronucleus/aberration tests
Assay: CCRIS mutagenicity studies
[1] = Test System: AMES SALMONELLA TYPHIMURIUM, Strain/Indicator: TA97, Metabolic Activation: HAMSTER, LIVER, S-9, AROCLOR 1254 (10 OR 30%), Method: PREINCUBATION
[2] = Test System: AMES SALMONELLA TYPHIMURIUM, Strain/Indicator: TA97, Metabolic Activation: NONE, Method: PREINCUBATION
[3] = Test System: AMES SALMONELLA TYPHIMURIUM, Strain/Indicator: TA97, Metabolic Activation: RAT, LIVER, S-9, AROCLOR 1254 (10 OR 30%), Method: PREINCUBATION
[4] = Test System: AMES SALMONELLA TYPHIMURIUM, Strain/Indicator: TA98, Metabolic Activation: HAMSTER, LIVER, S-9, AROCLOR 1254 (10 OR 30%), Method: PREINCUBATION
[5] = Test System: AMES SALMONELLA TYPHIMURIUM, Strain/Indicator: TA98, Metabolic Activation: NONE, Method: PREINCUBATION
[6] = Test System: AMES SALMONELLA TYPHIMURIUM, Strain/Indicator: TA98, Metabolic Activation: NONE, Method: STANDARD PLATE
[7] = Test System: AMES SALMONELLA TYPHIMURIUM, Strain/Indicator: TA98, Metabolic Activation: RAT, LIVER, S-9, AROCLOR 1254 (10 OR 30%), Method: PREINCUBATION
[8] = Test System: AMES SALMONELLA TYPHIMURIUM, Strain/Indicator: TA100, Metabolic Activation: HAMSTER, LIVER, S-9, AROCLOR 1254 (10 OR 30%), Method: PREINCUBATION
[9] = Test System: AMES SALMONELLA TYPHIMURIUM, Strain/Indicator: TA100, Metabolic Activation: NONE, Method: PREINCUBATION
[10] = Test System: AMES SALMONELLA TYPHIMURIUM, Strain/Indicator: TA100, Metabolic Activation: RAT, LIVER, S-9, AROCLOR 1254 (10 OR 30%), Method: PREINCUBATION
[11] = Test System: AMES SALMONELLA TYPHIMURIUM, Strain/Indicator: TA1535, Metabolic Activation: HAMSTER, LIVER, S-9, AROCLOR 1254 (10 OR 30%), Method: PREINCUBATION
[12] = Test System: AMES SALMONELLA TYPHIMURIUM, Strain/Indicator: TA1535, Metabolic Activation: NONE, Method: PREINCUBATION
[13] = Test System: AMES SALMONELLA TYPHIMURIUM, Strain/Indicator: TA1535, Metabolic Activation: RAT, LIVER, S-9, AROCLOR 1254 (10 OR 30%), Method: PREINCUBATION
[14] = Test System: AMES SALMONELLA TYPHIMURIUM, Strain/Indicator: TA100, Metabolic Activation: RAT, LIVER, S-9, AROCLOR 1254, Method: STANDARD PLATE
[15] = Test System: AMES SALMONELLA TYPHIMURIUM, Strain/Indicator: TA1537, Metabolic Activation: NONE, Method: PREINCUBATION

Measured: mutagenic call

CCOP(=S)(OCC)Oc1cc(C)nc(C(C)C)n1
inactive: [1] inactive; negative | [2] inactive; negative | [3] inactive; negative | [4] inactive; negative | [5] inactive; negative | [6] inactive; negative | [7] inactive; negative | Test System: AMES SALMONELLA TYPHIMURIUM, Strain/Indicator: TA98, Metabolic Activation: S-9, NADPH GENERATING SYSTEM, Method: STANDARD PLATE inactive; negative | [8] inactive; negative | [9] inactive; negative | [10] inactive; negative | Test System: AMES SALMONELLA TYPHIMURIUM, Strain/Indicator: TA102, Metabolic Activation: NONE, Method: STANDARD PLATE inactive; negative | Test System: AMES SALMONELLA TYPHIMURIUM, Strain/Indicator: TA102, Metabolic Activation: S-9, NADPH GENERATING SYSTEM, Method: STANDARD PLATE inactive; negative | [11] inactive; negative | [12] inactive; negative | Test System: AMES SALMONELLA TYPHIMURIUM, Strain/Indicator: TA1535, Metabolic Activation: NONE, Method: STANDARD PLATE inactive; negative | [13] inactive; negative | Test System: AMES SALMONELLA TYPHIMURIUM, Strain/Indicator: TA1535, Metabolic Activation: S-9, NADPH GENERATING SYSTEM, Method: STANDARD PLATE inactive; negative | Test System: AMES SALMONELLA TYPHIMURIUM, Strain/Indicator: TA1537, Metabolic Activation: NONE, Method: STANDARD PLATE inactive; negative | Test System: AMES SALMONELLA TYPHIMURIUM, Strain/Indicator: TA1537, Metabolic Activation: S-9, NADPH GENERATING SYSTEM, Method: STANDARD PLATE inactive; negative | Test System: E. COLI, Strain/Indicator: WP2 UVRA, Metabolic Activation: HAMSTER, LIVER, S-9, AROCLOR 1254, Method: STANDARD PLATE inactive; negative | Test System: E. COLI, Strain/Indicator: WP2 UVRA, Metabolic Activation: HAMSTER, LIVER, S-9, Method: STANDARD PLATE inactive; negative | Test System: E. COLI, Strain/Indicator: WP2 UVRA, Metabolic Activation: MOUSE, LIVER, S-9, AROCLOR 1254, Method: STANDARD PLATE inactive; negative | Test System: E. COLI, Strain/Indicator: WP2 UVRA, Metabolic Activation: MOUSE, LIVER, S-9, Method: STANDARD PLATE inactive; negative | Test System: E. COLI, Strain/Indicator: WP2 UVRA, Metabolic Activation: NONE, Method: STANDARD PLATE inactive; negative | Test System: E. COLI, Strain/Indicator: WP2 UVRA, Metabolic Activation: RAT, LIVER, S-9, AROCLOR 1254, Method: STANDARD PLATE inactive; negative | Test System: E. COLI, Strain/Indicator: WP2 UVRA, Metabolic Activation: RAT, LIVER, S-9, Method: STANDARD PLATE inactive; negative

BrCc1ccc(CBr)cc1
inactive: [6] inactive; negative | Test System: AMES SALMONELLA TYPHIMURIUM, Strain/Indicator: TA100, Metabolic Activation: NONE, Method: STANDARD PLATE inactive; negative

O=S(=O)(O)N(O)S(=O)(=O)O
active: Test System: AMES SALMONELLA TYPHIMURIUM, Strain/Indicator: G46, Metabolic Activation: RAT, LIVER, S-9, AROCLOR 1254, Method: STANDARD PLATE active; positive | [14] active; positive

N[C@@H](Cc1c[nH]c2ccccc12)C(=O)O
inactive: [1] inactive; negative | [2] inactive; negative | [3] inactive; negative | [4] inactive; negative | [5] inactive; negative | [7] inactive; negative | [8] inactive; negative | [9] inactive; negative | [10] inactive; negative | [11] inactive; negative | [12] inactive; negative | [13] inactive; negative | Test System: AMES SALMONELLA TYPHIMURIUM, Strain/Indicator: TA1537, Metabolic Activation: HAMSTER, LIVER, S-9, AROCLOR 1254 (30%), Method: PREINCUBATION inactive; negative | [15] inactive; negative | Test System: AMES SALMONELLA TYPHIMURIUM, Strain/Indicator: TA1537, Metabolic Activation: RAT, LIVER, S-9, AROCLOR 1254 (30%), Method: PREINCUBATION inactive; negative

Cc1c2ccccc2c(CO)c2ccc3ccccc3c12
inactive: Test System: AMES SALMONELLA TYPHIMURIUM, Strain/Indicator: TA100, Metabolic Activation: RAT, LIVER, PARENCHYMAL CELLS (CRYOPRESERVED), Method: PREINCUBATION inactive; negative
active: Test System: AMES SALMONELLA TYPHIMURIUM, Strain/Indicator: TA98, Metabolic Activation: HUMAN, LIVER, CYTOSOL, PAPS, Method: PREINCUBATION active; positive | Test System: AMES SALMONELLA TYPHIMURIUM, Strain/Indicator: TA100, Metabolic Activation: RAT, LIVER, PARENCHYMAL CELLS (FRESHLY ISOLATED), Method: PREINCUBATION active; positive | [14] active; positive | Test System: CHINESE HAMSTER V-79, Strain/Indicator: V-79/6-THIOGUANINE, Metabolic Activation: CELL-MEDIATED, Method: STANDARD PLATE active; positive | Test System: CHINESE HAMSTER V-79, Strain/Indicator: V-79/OUABAIN, Metabolic Activation: CELL-MEDIATED, Method: STANDARD PLATE active; positive

Cc1ccc(NN=NCc2ccccc2)cc1
active: [5] active; positive | Test System: AMES SALMONELLA TYPHIMURIUM, Strain/Indicator: TA98, Metabolic Activation: RAT, LIVER, S-9, PCB, Method: PREINCUBATION active; positive | [9] active; positive | Test System: AMES SALMONELLA TYPHIMURIUM, Strain/Indicator: TA100, Metabolic Activation: RAT, LIVER, S-9, PCB, Method: PREINCUBATION active; positive

CCCN(CCCC(=O)O)N=O
active: Test System: AMES SALMONELLA TYPHIMURIUM, Strain/Indicator: TA1535, Metabolic Activation: RAT, LIVER, S-9, KC500 OR PHENOBARBITAL, Method: LIQUID SUSPENSION active; positive

CC(=O)C(C)O (configuration not stated)
inactive: [5] inactive; negative | Test System: AMES SALMONELLA TYPHIMURIUM, Strain/Indicator: TA98, Metabolic Activation: RAT, LIVER, S-9, AROCLOR 1254, Method: PREINCUBATION inactive; negative | [9] inactive; negative | Test System: AMES SALMONELLA TYPHIMURIUM, Strain/Indicator: TA100, Metabolic Activation: RAT, LIVER, S-9, AROCLOR 1254, Method: PREINCUBATION inactive; negative | Test System: AMES SALMONELLA TYPHIMURIUM, Strain/Indicator: TA102, Metabolic Activation: NONE, Method: PREINCUBATION inactive; negative | Test System: AMES SALMONELLA TYPHIMURIUM, Strain/Indicator: TA102, Metabolic Activation: RAT, LIVER, S-9, AROCLOR 1254, Method: PREINCUBATION inactive; negative | [12] inactive; negative | [15] inactive; negative | Test System: AMES SALMONELLA TYPHIMURIUM, Strain/Indicator: TA1538, Metabolic Activation: NONE, Method: PREINCUBATION inactive; negative | Test System: E. COLI, Strain/Indicator: WP2 UVRA, Metabolic Activation: NONE, Method: PREINCUBATION inactive; negative
